Data from BindingDB's records for doi:10.1007/s00044-011-9593-5 (n/a, 2012).

Target: Integrase (Human immunodeficiency virus 1, UniProt Q7ZJM1)
Experiment: Inhibition of Human immunodeficiency virus 1 integrase strand transfer activity

Integrase, sequence (Q7ZJM1 whole entry): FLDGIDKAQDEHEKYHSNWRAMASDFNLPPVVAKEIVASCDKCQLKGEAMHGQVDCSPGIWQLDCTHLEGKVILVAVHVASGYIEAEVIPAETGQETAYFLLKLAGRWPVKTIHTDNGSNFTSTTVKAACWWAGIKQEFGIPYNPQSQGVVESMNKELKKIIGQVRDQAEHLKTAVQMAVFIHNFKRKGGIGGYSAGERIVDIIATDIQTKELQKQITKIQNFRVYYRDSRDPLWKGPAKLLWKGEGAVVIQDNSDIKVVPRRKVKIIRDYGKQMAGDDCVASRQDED

## CCN(CC)CCC[C@@H](C)Nc1ccnc2cc(Cl)ccc12 [Aralen]
  IC50: 0.25 nM
